≈ marks a conversion by molar mass, not a printed value. Where two headings read alike, the source gives them in different places.
Legend:
HeLa S3 cells = test: growth-inhibitory effect on HeLa S3 culture cells, dye exclusion method; assay type: cell-based; conditions: Homo sapiens, 72 h
Description: The growth-inhibitory effect of the compound of the present invention on HeLa S3 culture cells was examined. A 96-well plate was inoculated with HeLa S3 cells at a ratio of 1.5×10^3 cells/well and incubated. One day after the inoculation, the compound of the present invention was added to the culture medium at various concentrations. Three days after the addition, cells in each well were counted by the dye exclusion method to thereby evaluate the growth-inhibitory effect of the compound of the present invention at various concentrations on HeLa S3 cells.

[1] = test system: mouse colonic cancer cells (Colon 26); test: growth-inhibitory effect on mouse colonic cancer cells, dye exclusion method; assay type: cell-based
Description: The growth-inhibitory effects of the compound of the present invention on mouse colonic cancer cells (Colon 26) and human colonic cancer cells (SW1116) were examined. A 96-well plate was inoculated with mouse colonic cancer cells at a ratio of 1.5×10^3 cells per well, while another 96-well plate was inoculated with human colonic cancer cells at a ratio of 3.0×10^3 per well. These cells were incubated in an incubator at 37° C. under 5% CO2 for 24 hours. Then the compound of the present invention was added thereto at various concentrations. Cells in each well were counted by the dye exclusion method 65 hours and 96 hours after the addition to thereby evaluate the growth-inhibitory effect of the test compound on the mouse colonic cancer cells and that on the human colonic cancer cells.

Botrytis cinera = test: antifungal spectrum on potato sucrose agar medium; assay type: cell-based; conditions: read-out: Minimum inhibitory concentration
Source text: the antifungal spectrum of the compound of the present invention was examined.
(*) potato sucrose agar medium was used.

[2] = test system: mouse melanoma cells (B16); test: growth-inhibitory effect on mouse melanoma cells, dye exclusion method; assay type: cell-based; conditions: 72 hours
Description: The growth-inhibitory effects of the compound of the present invention on mouse melanoma cells (B16) and human melanoma cells (G361) were examined. A 96-well plate was inoculated with mouse melanoma cells at a ratio of 1.5×10^3 cells per well, while another 96-well plate was inoculated with human melanoma cells at a ratio of 1.0×10^3 per well. These cells were incubated in an incubator at 37° C. under 5% CO2. Then the compound of the present invention was added thereto at various concentrations. Cells in each well were counted by the dye exclusion method 72 hours after the addition to thereby evaluate the growth-inhibitory effect of the test compound on the mouse melanoma cells and that on the human melanoma cells at various concentrations.

[3] = test system: vascularization by the Ehrlich asoites tumor cells crude extract; test: vascularization-inhibitory effect, rabbit corneal assay; assay type: in vivo; conditions: slow-releasing pellet in cornea
Description: The vascularization-inhibitory effect of the compound of the present invention was examined by rabbit corneal assay reported by M. A. Gimbrone et al. (J. National Cancer Inst., 52, 412 (1974)). Namely, the center of the cornea of the eye of a rabbit was incised with a knife at a length of approximately 2 mm to thereby form a pouch. Then a slow-releasing pellet containing 100 μg of a crude extract of Ehrlich asoites tumor cells, which had been preliminarily prepared according to a method proposed by R. Langer et al. (Nature, 263, 797 ([…])), was introduced into the pouch. Further another slow-releasing pellet containing 0.3 to 81 μg of the compound of the present invention was introduced there into so as to contact these pellets with each other.

[4] = test system: human pulmonary cancer cells (PC-3); test: growth-inhibitory effect on human pulmonary cancer cells, dye exclusion method; assay type: cell-based; conditions: 72 h, three days
Description: the growth-inhibitory effects of the compound of the present invention on mouse pulmonary cancer cells (LL) and human plumonary cancer cells (PC-3) were examined.
A 96-well plate was inoculated with mouse polmonary cancer cells at a ratio of 8.0×10^2 cells per well, while another 96-well plate was inoculated with human pulmonary cancer cells at a ratio of 2.5×10^3 per well. These cells were incubated in an incubator at 37° C. under 5% CO2 for 24 hours. Then the compound of the present invention was added thereto at various concentrations. Cells in each well were counted by the dye exclusion method three days after the addition to thereby evaluate the growth-inhibitory effect of the test compound on the mouse pulmonary cancer cells (LL) and that on the human pulmonary cancer cells (PC-3).

[5] = test system: larva of mosquito culices (a sensitive species); test: insecticidal action, mortality of mosquito larvae; assay type: in vivo; conditions: read-out: Mortality rate, larvae of mosquito
Description: The insecticidal action of the compound of the present invention was examined by the following method.
(2) A larva of mosquito culices (a sensitive species) was used as a test vermin, and the mortality rate thereof was assayed according to an ordinary method (described on page 109 of "Noyaku Jikkenho I, Sacchuzaihen" published by Soft Science, Inc.).
Specifically, 10 ml of well water was placed in a vessel (15-ml Petridish), and 5 larvae of mosquito culices (the third stage) were released in the vessel. A solution of the compound of the present invention in acetone (0.1%) was added thereto so as to have a predetermined concentration. The vessel was allowed to stand in a thermostatic chamber (26°±1° C.) for a predetermined period of time, and the life and death of the test vermin were investigated.

## CCC1/C=C/C=C/CC(C)C(O)C(C)(O)C(=O)C(C)C(O)C(C)C(=O)C(C)C(O)C(C)/C=C/C(=O)OC2C(C)C(CC1)OC1(CCC(C)C(CC(C)O)O1)C2CC (stereo not drawn) [NK130119]
HeLa S3 cells; HeLa S3, 0.039 μg/ml, three days, read-out: Growth-inhibitory ratio
  inhibition at 0.039 µg/mL: 40%
HeLa S3 cells; HeLa S3, 0.156 μg/ml, three days, read-out: Growth-inhibitory ratio
  inhibition at 0.156 µg/mL: 43.5%
HeLa S3 cells; HeLa S3, 0.625 μg/ml, three days, read-out: Growth-inhibitory ratio
  inhibition at 0.625 µg/mL: 47.5%
HeLa S3 cells; HeLa S3, 2.5 μg/ml, three days, read-out: Growth-inhibitory ratio
  inhibition at 2.5 µg/mL: 55.3%
HeLa S3 cells; HeLa S3, 10 μg/ml, three days, read-out: Growth-inhibitory ratio
  inhibition at 10 µg/mL: 83.6%
HeLa S3 cells; HeLa S3 cells, three days after addition
  IC50: 0.987 µg/mL (≈ 1.23 µM)
[1]; Mus musculus, Colon 26, 0.0006 μg/ml, read-out: Growth-inhibitory ratio
  inhibition at 0.0006 µg/mL: 2.54%
[1]; Mus musculus, Colon 26, 0.0024 μg/ml, read-out: Growth-inhibitory ratio
  inhibition at 0.0024 µg/mL: 4.17%
[1]; Mus musculus, Colon 26, 0.0098 μg/ml, read-out: Growth-inhibitory ratio
  inhibition at 0.0098 µg/mL: 41%
[1]; Mus musculus, Colon 26, 0.039 μg/ml, read-out: Growth-inhibitory ratio
  inhibition at 0.039 µg/mL: 87.6%
[1]; Mus musculus, Colon 26, 0.156 μg/ml, read-out: Growth-inhibitory ratio
  inhibition at 0.156 µg/mL: 90.3%
[1]; Mus musculus, Colon 26, 0.625 μg/ml, read-out: Growth-inhibitory ratio
  inhibition at 0.625 µg/mL: 88.9%
[1]; Mus musculus, Colon 26, 2.5 μg/ml, read-out: Growth-inhibitory ratio
  inhibition at 2.5 µg/mL: 96%
[1]; Mus musculus, Colon 26, 10 μg/ml, read-out: Growth-inhibitory ratio
  inhibition at 10 µg/mL: 101%
[1]; mouse colonic cancer cells (Colon 26), cells counted 65 hours and 96 hours after addition
  IC50: < 0.025 µg/mL
Botrytis cinera
  MIC: 6.25 µg/mL (≈ 7.76 µM)
[2]; Mus musculus, B16, 0.0006 μg/ml, read-out: Growth-inhibitory ratio
  inhibition at 0.0006 µg/mL: 0.63%
[2]; Mus musculus, B16, 0.0024 μg/ml, read-out: Growth-inhibitory ratio
  inhibition at 0.0024 µg/mL: 0.63%
[2]; Mus musculus, B16, 0.0097 μg/ml, read-out: Growth-inhibitory ratio
  inhibition at 0.0097 µg/mL: 1.32%
[2]; Mus musculus, B16, 0.039 μg/ml, read-out: Growth-inhibitory ratio
  inhibition at 0.039 µg/mL: 34.2%
[2]; Mus musculus, B16, 0.156 μg/ml, read-out: Growth-inhibitory ratio
  inhibition at 0.156 µg/mL: 45.9%
[2]; Mus musculus, B16, 0.625 μg/ml, read-out: Growth-inhibitory ratio
  inhibition at 0.625 µg/mL: 49.7%
[2]; Mus musculus, B16, 2.5 μg/ml, read-out: Growth-inhibitory ratio
  inhibition at 2.5 µg/mL: 79%
[2]; Mus musculus, B16, 10 μg/ml, read-out: Growth-inhibitory ratio
  inhibition at 10 µg/mL: 101%
[2]; mouse melanoma cells (B16)
  IC50: 0.64 µg/mL (≈ 0.795 µM)
[3]; 1 μg or above
  retardation of vascularization compared with control group: significantly retarded till the fourth day
[3]; 2.7 ug or above
  retardation of vascularization compared with control group: till the eighth day
[4]; human pulmonary cancer cells (PC-3)
  IC50: 2 µg/mL (≈ 2.48 µM)
[4]; Homo sapiens, PC-3, 0.0006 μg/ml, read-out: Growth-inhibitory ratio
  inhibition at 0.0006 µg/mL: 0.8%
[4]; Homo sapiens, PC-3, 0.0024 μg/ml, read-out: Growth-inhibitory ratio
  inhibition at 0.0024 µg/mL: 1.4%
[4]; Homo sapiens, PC-3, 0.0098 μg/ml, read-out: Growth-inhibitory ratio
  inhibition at 0.0098 µg/mL: 6.2%
[4]; Homo sapiens, PC-3, 0.039 μg/ml, read-out: Growth-inhibitory ratio
  inhibition at 0.039 µg/mL: 22.6%
[4]; Homo sapiens, PC-3, 0.156 μg/ml, read-out: Growth-inhibitory ratio
  inhibition at 0.156 µg/mL: 21.3%
[4]; Homo sapiens, PC-3, 0.625 μg/ml, read-out: Growth-inhibitory ratio
  inhibition at 0.625 µg/mL: 28%
[4]; Homo sapiens, PC-3, 2.5 μg/ml, read-out: Growth-inhibitory ratio
  inhibition at 2.5 µg/mL: 54.3%
[4]; Homo sapiens, PC-3, 10 μg/ml, read-out: Growth-inhibitory ratio
  inhibition at 10 µg/mL: 91.5%
[5]; 48 h, after 2 days
  mortality at 1 ppm: 73%
  mortality at 10 ppm: 100%
[5]; 144 h, after 6 days
  mortality at 1 ppm: 80%
  mortality at 10 ppm: 100%
[5]; 216 h, after 9 days
  mortality at 1 ppm: 80%
  mortality at 10 ppm: 100%
